These results are taken from PubChem BioAssay (NCI).

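Protocol summary: plate cells (96-well), add compound at 5 concentrations, incubate 48 h, interpolate endpoints linearly. Here, GI50 denotes the concentration required for 50% inhibition of growth. TGI: total growth inhibition.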

Among the test systems are SF-539 CNS; OVCAR-3 ovarian; HT29 colon; OVCAR-5 ovarian; UO-31 renal; SK-MEL-5 melanoma; SF-268 CNS; SF-295 CNS; DU-145 prostate; KM12 colon.
Common to all, as to assay: growth of human tumour cells (NCI), 48 h

On to `COn1cc(CO)c2ccccc21`, for which the TGI is above 100 µM in the test on SF-539 CNS; above 100 µM in the test with OVCAR-3 ovarian; above 100 µM with HT29 colon; 42.5 µM with OVCAR-5 ovarian; above 82 µM in the test on UO-31 renal; above 100 µM with SK-MEL-5 melanoma. The TGI in the test with SF-268 CNS, in the test with SF-295 CNS, in the test with DU-145 prostate and in the test with KM12 colon was above 100 µM in each case.

In the case of `COc1cc2nc(-c3c(F)cccc3F)n(Cc3c(F)cccc3F)c2cc1Cc1c(F)cccc1F`, the TGI in the test with SF-539 CNS, with OVCAR-3 ovarian, in the test with HT29 colon, in the test with OVCAR-5 ovarian, with UO-31 renal and in the test on SK-MEL-5 melanoma was above 100 µM each time. Moreover, the TGI in the test with SF-268 CNS, with SF-295 CNS, with DU-145 prostate and in the test on KM12 colon was above 100 µM throughout.

As for `Cc1cccc(NC(Nc2cccc(C)c2)=C(C(Cl)=C(Cl)Cl)[N+](=O)[O-])c1`, the TGI in the test on SF-539 CNS is 23.4 µM; in the test on OVCAR-3 ovarian it was 44.6 µM; in the test on HT29 colon, above 54 µM; in the test with OVCAR-5 ovarian it was above 72.1 µM; in the test with UO-31 renal, 26.4 µM; in the test on SK-MEL-5 melanoma, 19.6 µM. In addition, the TGI in the test with SF-268 CNS was 30.6 µM; with SF-295 CNS, above 66.8 µM; with DU-145 prostate it was above 57.5 µM; in the test on KM12 colon it was 49.5 µM.

Consider `O=CN(O)CC(=O)O`, for which the TGI in the test on SF-539 CNS, with OVCAR-3 ovarian, in the test on HT29 colon, in the test with OVCAR-5 ovarian, in the test with UO-31 renal and in the test on SK-MEL-5 melanoma was above 100 µM in each case. Also, the TGI in the test on SF-268 CNS, with SF-295 CNS, with DU-145 prostate and in the test with KM12 colon was above 100 µM each time.

As to `COc1cc2c3c(n(C)c(=O)c2cc1OC)-c1cc2c(cc1/C3=C/CCCCBr)OCO2`, the GI50 in the test with SF-539 CNS is 7.07 µM; in the test with OVCAR-3 ovarian it was above 100 µM; in the test on DU-145 prostate, 4.46 µM. For the same compound, the TGI in the test on SF-539 CNS, in the test with OVCAR-3 ovarian, with HT29 colon, with OVCAR-5 ovarian, with UO-31 renal and in the test with SK-MEL-5 melanoma was above 100 µM in each case. The TGI with SF-268 CNS, with SF-295 CNS, in the test with DU-145 prostate and in the test with KM12 colon was above 100 µM in each case.

For the compound `COC(=O)C(CCSC)NC(=O)CSc1nnc(COc2ccc(Cl)cc2)n1-c1ccccc1` (stereo not drawn), the TGI is 33.7 µM with SF-539 CNS; 5.37 µM in the test with OVCAR-3 ovarian; 34.7 µM in the test with HT29 colon; 38.7 µM in the test with OVCAR-5 ovarian; 13.7 µM with UO-31 renal; 32.7 µM in the test with SK-MEL-5 melanoma. Further, the TGI came out at 34.5 µM in the test on SF-268 CNS, 32.3 µM with SF-295 CNS, 33 µM with DU-145 prostate and 34.4 µM in the test with KM12 colon.

`COC(=O)c1sc2ncc3c(c2c1N)CC(C)CC3` (stereo not drawn): the TGI with SF-539 CNS, in the test on OVCAR-3 ovarian, with HT29 colon, with OVCAR-5 ovarian, in the test on UO-31 renal and in the test with SK-MEL-5 melanoma was above 100 µM in each case. Also, the TGI with SF-268 CNS, in the test with SF-295 CNS, with DU-145 prostate and in the test with KM12 colon was above 100 µM each time.

As to `O=C(NCCCNCCCCNCCCNC(=O)C(F)(F)F)C(F)(F)F`, the TGI with SF-539 CNS, in the test on OVCAR-3 ovarian, in the test on HT29 colon, in the test with OVCAR-5 ovarian, in the test on UO-31 renal and with SK-MEL-5 melanoma was above 100 µM each time. Besides, the TGI in the test with SF-268 CNS, with SF-295 CNS, in the test on DU-145 prostate and in the test on KM12 colon was above 100 µM throughout.

In the case of `Cc1cn(C2CC(OC(c3ccccc3)(c3ccccc3)c3ccccc3)C(COC(c3ccccc3)(c3ccccc3)c3ccccc3)O2)c(=O)[nH]c1=O` (stereo not drawn), the TGI in the test on SF-539 CNS, in the test on OVCAR-3 ovarian, in the test with HT29 colon, in the test on OVCAR-5 ovarian, in the test on UO-31 renal and in the test on SK-MEL-5 melanoma was above 100 µM throughout. Moreover, the TGI in the test with SF-268 CNS, with SF-295 CNS, in the test with DU-145 prostate and in the test with KM12 colon was above 100 µM throughout.

`CC[P+](C#Cc1ccccc1)(c1ccccc1)c1ccccc1`: the TGI in the test with SF-539 CNS amounted to 4.01 µM; in the test with OVCAR-3 ovarian it was 4.55 µM; in the test with HT29 colon it was 6.98 µM; in the test on OVCAR-5 ovarian, 16.3 µM; with UO-31 renal, 27 µM; with SK-MEL-5 melanoma, 2.84 µM. The TGI in the test on SF-268 CNS was 8.71 µM; with SF-295 CNS, 21.1 µM; with DU-145 prostate, 10.4 µM; in the test on KM12 colon, 3.29 µM.

With `COc1cc2c(cc1O)CC[n+]1cc3c(OC)c(OC)ccc3cc1-2`, the TGI with SF-539 CNS, in the test on OVCAR-3 ovarian, in the test on HT29 colon, in the test with OVCAR-5 ovarian, with UO-31 renal and in the test with SK-MEL-5 melanoma was above 100 µM throughout. The TGI with SF-268 CNS, in the test with SF-295 CNS, in the test with DU-145 prostate and with KM12 colon was above 100 µM in each case.

On to `COC(=O)C1=C(C(=O)OC)C2(C)CCC(=O)C1O2` (stereo not drawn), for which the TGI in the test on SF-539 CNS, in the test with OVCAR-3 ovarian, in the test with HT29 colon, in the test on OVCAR-5 ovarian, in the test on UO-31 renal and with SK-MEL-5 melanoma was above 10 µM in each case. The TGI in the test with SF-268 CNS, with SF-295 CNS, in the test with DU-145 prostate and with KM12 colon was above 10 µM throughout.

As for `O=[N+]([O-])c1ccc2nc3c(nc2c1)-c1c2ccccc2cc2cccc-3c12`, the TGI in the test with SF-539 CNS is 40.5 µM; in the test with OVCAR-3 ovarian, 51.7 µM; in the test on HT29 colon it was above 100 µM; in the test with OVCAR-5 ovarian, above 100 µM; in the test on UO-31 renal, above 70.9 µM; in the test on SK-MEL-5 melanoma, above 100 µM. The TGI was above 100 µM in the test with SF-268 CNS, 59.5 µM in the test with SF-295 CNS, above 100 µM with DU-145 prostate and above 100 µM in the test on KM12 colon.

With `Cc1ccsc1C(=S)Nc1ccc(Cl)c(C(=O)OC(C(C)C)C(C)C)c1`, the TGI was above 100 µM in the test with SF-539 CNS; 33.5 µM with OVCAR-3 ovarian; 71.6 µM in the test on HT29 colon; above 100 µM in the test on OVCAR-5 ovarian; above 100 µM in the test on UO-31 renal; 33 µM in the test with SK-MEL-5 melanoma. The TGI with SF-268 CNS, in the test on SF-295 CNS, in the test on DU-145 prostate and with KM12 colon was above 100 µM throughout.

Take `COP(=O)(CC(=O)C1OC(OCc2ccccc2)C(OCc2ccccc2)C(OCc2ccccc2)C1OCc1ccccc1)OC` (stereo not drawn): the TGI was 40.7 µM with SF-539 CNS; above 100 µM in the test on OVCAR-3 ovarian; 24.2 µM in the test with HT29 colon; above 100 µM with OVCAR-5 ovarian; 7.1 µM in the test on UO-31 renal; 16.8 µM in the test on SK-MEL-5 melanoma. In addition, the TGI in the test on SF-268 CNS is above 100 µM; with SF-295 CNS, above 100 µM; in the test with DU-145 prostate it was above 100 µM; in the test with KM12 colon, 37.6 µM.

As to `CC1=NC(C)(C)N(O)C1(C)C`, the TGI in the test on SF-539 CNS, in the test on OVCAR-3 ovarian, in the test with HT29 colon, in the test on OVCAR-5 ovarian, in the test with UO-31 renal and with SK-MEL-5 melanoma was above 100 µM each time. Further, the TGI in the test with SF-268 CNS, in the test with SF-295 CNS, in the test with DU-145 prostate and in the test on KM12 colon was above 100 µM in each case.

Consider `COc1cc(-c2c3c(cc4c2OCO4)[C@@H](Nc2ccc4c(c2)Cc2cc(N[C@@H]5c6cc7c(cc6C(c6cc(OC)c(O)c(OC)c6)[C@H]6C(=O)OC[C@H]56)OCO7)ccc2-4)[C@H]2COC(=O)[C@@H]2C3)cc(OC)c1O` (stereo partly drawn), for which the TGI in the test on SF-539 CNS was 19 µM; in the test with OVCAR-3 ovarian it was above 100 µM; in the test on HT29 colon it was 47.2 µM; in the test with OVCAR-5 ovarian it was 88.3 µM; in the test with UO-31 renal it was above 100 µM; in the test with SK-MEL-5 melanoma, 46.2 µM. The TGI was above 100 µM with SF-268 CNS, 42.3 µM with SF-295 CNS, above 100 µM with DU-145 prostate and above 100 µM with KM12 colon.

For the compound `COC(=O)[C@H]1C=C[C@H](OC2OC(COC(C)=O)C(OC(C)=O)C(OC(C)=O)C2OC(C)=O)n2c(=O)n(-c3ccccc3)c(=O)n21` (stereo partly drawn), the TGI was 4.44 µM in the test with SF-539 CNS; 11.3 µM in the test on OVCAR-3 ovarian; 8.58 µM in the test with HT29 colon; 25.7 µM with OVCAR-5 ovarian; 4.96 µM in the test with UO-31 renal; above 22.4 µM in the test with SK-MEL-5 melanoma. Also, the TGI in the test on SF-268 CNS is above 47.1 µM; in the test on SF-295 CNS, 26.9 µM; in the test with DU-145 prostate, 21.1 µM; with KM12 colon it was 25.1 µM.

In the case of `COc1cc(/C=C/c2cc(=O)cc(/C=C/c3ccc(O)c(OC)c3)o2)ccc1O`, the TGI in the test with SF-539 CNS, with OVCAR-3 ovarian, in the test with HT29 colon, with OVCAR-5 ovarian, in the test with UO-31 renal and in the test with SK-MEL-5 melanoma was above 100 µM each time. Further, the TGI in the test on SF-268 CNS, in the test with SF-295 CNS, in the test on DU-145 prostate and in the test with KM12 colon was above 100 µM each time.
